≈ marks a conversion by molar mass, not a printed value. Calls of active or inactive are those of the source. The calls are words filed in the database; no cut-off is given here.
How the values were obtained:
[1] = test system: Plasmodium vivax; assay: Antimalarial activity against Plasmodium vivax isolates after 42 hrs; type: functional, organism-based
[2] = Cytotoxicity against human THP1 cells after 4 days by XTT assay; type: cell-based; details: THP-1 cells
[3] = Cytotoxicity against human HepG2 cells after 4 days by XTT assay; type: cell-based
[4] = Binding affinity to human recombinant adenosine transporter
[5] = biological target: Alpha-2A adrenergic receptor (Homo sapiens, UniProt P08913); assay: Binding affinity to human recombinant alpha-2a receptor
[6] = biological target: Alpha-2C adrenergic receptor (Homo sapiens, UniProt P18825); assay: Binding affinity to human recombinant alpha2c receptor
[7] = biological target: B1 bradykinin receptor (Homo sapiens, UniProt P46663); assay: Binding affinity to human recombinant bradykinin B1 receptor
[8] = biological target: B2 bradykinin receptor (Homo sapiens, UniProt P30411); assay: Binding affinity to human recombinant bradykinin B2 receptor
[9] = Binding affinity to rat N-type calcium channel
[10] = biological target: Gastrin/cholecystokinin type B receptor (Homo sapiens, UniProt P32239); assay: Binding affinity to human recombinant cholecystokinin B receptor
[11] = biological target: Corticotropin-releasing factor receptor 1 (Homo sapiens, UniProt P34998); assay: Binding affinity to human recombinant CRF1 receptor
[12] = biological target: D(1A) dopamine receptor (Homo sapiens, UniProt P21728); assay: Binding affinity to human recombinant dopamine D1 receptor
[13] = biological target: D(3) dopamine receptor (Homo sapiens, UniProt P35462); assay: Binding affinity to human recombinant dopamine D3 receptor
[14] = biological target: Endothelin receptor type B (Homo sapiens, UniProt P24530); assay: Binding affinity to human recombinant endothelin B receptor
[15] = biological target: GABA-A receptor; agonist GABA site; assay: Binding affinity to human recombinant GABAA receptor; type: protein-complex assay
[16] = biological target: Histamine H2 receptor (Homo sapiens, UniProt P25021); assay: Binding affinity to human recombinant histamine H2 receptor
[17] = biological target: Histamine H3 receptor (Homo sapiens, UniProt Q9Y5N1); assay: Binding affinity to human recombinant histamine H3 receptor
[18] = biological target: Amine oxidase [flavin-containing] A (Homo sapiens, UniProt P21397); assay: Binding affinity to human recombinant MAOM
[19] = biological target: Muscarinic acetylcholine receptor M1 (Homo sapiens, UniProt P11229); assay: Binding affinity to human recombinant muscarinic M1 receptor
[20] = biological target: Neuropeptide Y receptor type 1 (Homo sapiens, UniProt P25929); assay: Binding affinity to human recombinant neuropeptide Y1 receptor
[21] = biological target: Neuropeptide Y receptor type 2 (Homo sapiens, UniProt P49146); assay: Binding affinity to human recombinant neuropeptide Y2 receptor
[22] = biological target: Glutamate [NMDA] receptor; assay: Binding affinity to human recombinant NMDA receptor
[23] = biological target: Phosphodiesterase 3 (Homo sapiens, UniProt Q14432+Q13370); assay: Binding affinity to human recombinant PDE3; type: protein assay
[24] = biological target: 5-hydroxytryptamine receptor 2B (Homo sapiens, UniProt P41595); assay: Binding affinity to human recombinant serotonin 5-HT2B receptor
[25] = biological target: Vasopressin V1a receptor (Homo sapiens, UniProt P37288); assay: Binding affinity to human recombinant vasopressin V1a receptor
[26] = Clearance in CD1 mouse at 5.4 mg/kg, iv; type: ADME, organism-based; parameters: dose 5.4 mg/kg, route intravenous; details: in vivo
[27] = Tmax in CD1 mouse at 24.6 mg/kg, po; type: ADME, organism-based; parameters: dose 24.6 mg/kg, route oral; details: in vivo
[28] = AUC (0 to infinity) in CD1 mouse at 24.6 mg/kg, po; type: ADME, organism-based; parameters: time infinity, dose 24.6 mg/kg, route oral; details: plasma
[29] = AUC (0 to infinity) in Wistar rat at 5 mg/kg, iv; type: ADME, organism-based; parameters: time infinity, dose 5 mg/kg, route intravenous; details: plasma
[30] = Clearance in Wistar rat at 5 mg/kg, iv; type: ADME, organism-based; parameters: dose 5 mg/kg, route intravenous; details: in vivo
[31] = Cmax in Wistar rat at 23.7 mg/kg, po; type: ADME, organism-based; parameters: dose 23.7 mg/kg, route oral; details: in vivo
[32] = test system: Plasmodium berghei; assay: Antimalarial activity against Plasmodium berghei GFP ANKA infected in NMRI mice (Mus musculus) assessed as cure rate at 100 mg/kg, perorally administered as single dose 24 hrs post infection for 1 day measured 30 days post infection; type: functional; details: route oral
[33] = test system: Plasmodium berghei; assay: Antimalarial activity against Plasmodium berghei GFP ANKA infected in NMRI mice (Mus musculus) assessed as survival at 10 mg/kg, perorally administered through 0.5% MCM/0.1%solutol HS15 formulation 24 hrs post infection for 3 days measured 96 hrs post infection; type: functional; details: route oral
[34] = test system: Plasmodium berghei; assay: Antimalarial activity against Plasmodium berghei GFP ANKA infected in NMRI mice (Mus musculus) assessed as cure rate at 10 mg/kg, perorally administered through 0.5% MCM/0.1%solutol HS15 formulation 24 hrs post infection for 3 days measured on day 30 post infection; type: functional; details: route oral
[35] = test system: Plasmodium falciparum; assay: Antimalarial activity against NITD609-resistant Plasmodium falciparum Dd2 Clone2 bearing P-type ATPase4 T418N and P990R mutations after 72 hrs by SYBR green based fluorescence assay; type: functional, organism-based; details: Dd2, 72 h
[36] = test system: Plasmodium berghei; assay: Antimalarial activity against Plasmodium berghei GFP ANKA infected in NMRI mice (Mus musculus) assessed as reduction in parasitaemia dosed in ETPGS formulation 1 day post infection measured 72 hrs post infection; type: functional
[37] = Solubility in pH 6.8 nuffer; type: physicochemical; details: buffer
[38] = Mutagenic activity in Salmonella Typhimurium by Ames test; type: toxicity; details: salmonella enterica subsp. enterica serovar typhimurium
[39] = test system: Mus musculus; assay: Toxicity in Plasmodium berghei GFP ANKA infected NMRI mice (Mus musculus) assessed as reduction in parasitemia dosed in ETPGS formulation 1 day postinfection measured 72 hrs post infection; type: organism-based; details: in vivo

Chain of 5-hydroxytryptamine receptor 2B (P41595 whole entry): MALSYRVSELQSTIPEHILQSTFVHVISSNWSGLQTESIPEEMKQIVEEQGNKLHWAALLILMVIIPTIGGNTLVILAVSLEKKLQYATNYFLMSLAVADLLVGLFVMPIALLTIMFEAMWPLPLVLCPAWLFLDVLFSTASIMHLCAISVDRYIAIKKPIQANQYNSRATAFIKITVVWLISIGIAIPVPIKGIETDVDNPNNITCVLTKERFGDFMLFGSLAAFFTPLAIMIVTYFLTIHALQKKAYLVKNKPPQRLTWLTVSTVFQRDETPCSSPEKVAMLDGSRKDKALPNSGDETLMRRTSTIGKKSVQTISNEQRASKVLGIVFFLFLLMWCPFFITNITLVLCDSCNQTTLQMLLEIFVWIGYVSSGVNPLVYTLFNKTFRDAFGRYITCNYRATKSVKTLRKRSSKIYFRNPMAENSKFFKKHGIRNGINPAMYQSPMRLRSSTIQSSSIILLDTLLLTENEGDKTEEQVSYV
Chain of Alpha-2A adrenergic receptor (P08913 whole entry): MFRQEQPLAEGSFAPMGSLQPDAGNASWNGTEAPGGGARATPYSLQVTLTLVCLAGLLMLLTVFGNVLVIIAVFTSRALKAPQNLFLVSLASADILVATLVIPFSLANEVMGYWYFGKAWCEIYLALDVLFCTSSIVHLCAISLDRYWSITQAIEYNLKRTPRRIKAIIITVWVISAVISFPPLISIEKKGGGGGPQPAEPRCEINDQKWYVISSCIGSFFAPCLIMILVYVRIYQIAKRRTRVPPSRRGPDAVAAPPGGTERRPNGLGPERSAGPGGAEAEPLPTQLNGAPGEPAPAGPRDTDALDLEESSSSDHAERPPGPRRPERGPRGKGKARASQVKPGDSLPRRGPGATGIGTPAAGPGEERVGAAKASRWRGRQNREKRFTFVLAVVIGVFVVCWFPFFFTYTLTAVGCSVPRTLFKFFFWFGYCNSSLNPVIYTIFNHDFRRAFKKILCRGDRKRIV
Chain of Neuropeptide Y receptor type 2 (P49146 whole entry): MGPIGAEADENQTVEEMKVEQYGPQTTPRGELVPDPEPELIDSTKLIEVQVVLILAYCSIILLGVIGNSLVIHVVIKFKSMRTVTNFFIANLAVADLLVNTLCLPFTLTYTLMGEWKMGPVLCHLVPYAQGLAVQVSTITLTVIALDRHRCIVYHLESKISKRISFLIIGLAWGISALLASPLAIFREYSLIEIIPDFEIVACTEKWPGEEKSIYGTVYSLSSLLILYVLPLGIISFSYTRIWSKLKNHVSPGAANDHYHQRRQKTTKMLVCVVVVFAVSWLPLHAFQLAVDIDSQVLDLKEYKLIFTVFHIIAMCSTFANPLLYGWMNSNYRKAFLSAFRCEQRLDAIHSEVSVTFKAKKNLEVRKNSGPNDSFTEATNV
Chain of D(3) dopamine receptor (P35462 whole entry): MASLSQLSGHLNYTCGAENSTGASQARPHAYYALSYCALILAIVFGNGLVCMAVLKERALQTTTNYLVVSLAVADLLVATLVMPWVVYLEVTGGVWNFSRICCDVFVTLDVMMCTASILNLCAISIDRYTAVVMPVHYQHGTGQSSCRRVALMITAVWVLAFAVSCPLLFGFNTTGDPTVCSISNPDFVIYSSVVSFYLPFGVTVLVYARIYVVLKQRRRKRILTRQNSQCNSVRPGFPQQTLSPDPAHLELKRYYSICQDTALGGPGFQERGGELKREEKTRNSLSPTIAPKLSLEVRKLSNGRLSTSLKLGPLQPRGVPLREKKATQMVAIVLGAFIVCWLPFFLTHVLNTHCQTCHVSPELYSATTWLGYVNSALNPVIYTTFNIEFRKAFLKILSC
Chain of Vasopressin V1a receptor (P37288 whole entry): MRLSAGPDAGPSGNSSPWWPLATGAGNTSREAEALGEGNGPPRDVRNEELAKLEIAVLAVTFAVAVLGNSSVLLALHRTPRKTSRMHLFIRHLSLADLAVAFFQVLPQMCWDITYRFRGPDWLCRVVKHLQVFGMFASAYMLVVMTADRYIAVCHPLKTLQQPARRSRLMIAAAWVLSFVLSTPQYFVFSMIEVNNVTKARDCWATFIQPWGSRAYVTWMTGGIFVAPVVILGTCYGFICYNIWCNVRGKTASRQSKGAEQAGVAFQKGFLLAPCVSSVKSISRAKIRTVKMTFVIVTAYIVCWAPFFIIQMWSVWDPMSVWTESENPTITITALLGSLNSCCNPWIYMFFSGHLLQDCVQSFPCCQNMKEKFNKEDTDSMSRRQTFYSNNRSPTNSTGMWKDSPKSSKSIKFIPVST
Chain of B1 bradykinin receptor (P46663 whole entry): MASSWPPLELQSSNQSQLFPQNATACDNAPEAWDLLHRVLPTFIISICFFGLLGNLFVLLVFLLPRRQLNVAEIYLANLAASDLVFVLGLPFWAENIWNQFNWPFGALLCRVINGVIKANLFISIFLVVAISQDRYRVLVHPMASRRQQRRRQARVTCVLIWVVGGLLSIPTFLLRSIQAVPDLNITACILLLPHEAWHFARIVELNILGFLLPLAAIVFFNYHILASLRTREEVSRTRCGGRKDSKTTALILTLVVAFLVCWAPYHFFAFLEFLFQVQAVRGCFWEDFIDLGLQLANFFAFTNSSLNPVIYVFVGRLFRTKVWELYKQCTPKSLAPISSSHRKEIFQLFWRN
Chain of Histamine H2 receptor (P25021 whole entry): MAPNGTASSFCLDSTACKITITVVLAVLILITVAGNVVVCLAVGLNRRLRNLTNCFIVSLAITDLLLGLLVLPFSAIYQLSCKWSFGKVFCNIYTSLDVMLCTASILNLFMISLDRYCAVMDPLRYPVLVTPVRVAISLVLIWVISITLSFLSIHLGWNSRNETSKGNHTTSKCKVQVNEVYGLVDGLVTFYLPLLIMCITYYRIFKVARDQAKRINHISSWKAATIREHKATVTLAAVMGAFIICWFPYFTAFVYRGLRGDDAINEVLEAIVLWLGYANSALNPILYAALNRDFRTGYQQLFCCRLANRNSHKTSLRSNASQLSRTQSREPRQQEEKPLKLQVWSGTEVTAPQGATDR
Chain of Corticotropin-releasing factor receptor 1 (P34998 whole entry): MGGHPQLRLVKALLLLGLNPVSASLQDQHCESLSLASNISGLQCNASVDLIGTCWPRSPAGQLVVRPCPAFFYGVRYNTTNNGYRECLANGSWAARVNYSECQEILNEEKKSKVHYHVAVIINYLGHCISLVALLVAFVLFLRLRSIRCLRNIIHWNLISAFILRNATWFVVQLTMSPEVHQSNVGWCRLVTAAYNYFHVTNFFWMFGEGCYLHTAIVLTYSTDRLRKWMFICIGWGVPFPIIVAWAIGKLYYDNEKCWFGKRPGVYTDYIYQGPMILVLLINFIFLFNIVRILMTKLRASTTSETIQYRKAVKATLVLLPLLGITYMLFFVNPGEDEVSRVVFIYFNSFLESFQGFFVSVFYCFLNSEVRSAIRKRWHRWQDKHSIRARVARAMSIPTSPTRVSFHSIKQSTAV
Chain of Alpha-2C adrenergic receptor (P18825 whole entry): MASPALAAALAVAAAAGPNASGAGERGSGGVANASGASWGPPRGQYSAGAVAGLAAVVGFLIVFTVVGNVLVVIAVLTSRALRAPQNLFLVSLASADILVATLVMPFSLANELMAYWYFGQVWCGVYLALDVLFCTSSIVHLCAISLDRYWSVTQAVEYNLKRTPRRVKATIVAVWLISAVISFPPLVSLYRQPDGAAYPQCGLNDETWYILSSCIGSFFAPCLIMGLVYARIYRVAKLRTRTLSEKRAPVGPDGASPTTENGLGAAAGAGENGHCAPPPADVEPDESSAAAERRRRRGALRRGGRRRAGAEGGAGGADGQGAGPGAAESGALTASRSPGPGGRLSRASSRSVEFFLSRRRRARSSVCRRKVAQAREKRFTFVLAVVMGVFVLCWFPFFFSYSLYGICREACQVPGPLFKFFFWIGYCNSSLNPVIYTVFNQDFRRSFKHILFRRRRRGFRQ
Chain of Amine oxidase [flavin-containing] A (P21397 whole entry): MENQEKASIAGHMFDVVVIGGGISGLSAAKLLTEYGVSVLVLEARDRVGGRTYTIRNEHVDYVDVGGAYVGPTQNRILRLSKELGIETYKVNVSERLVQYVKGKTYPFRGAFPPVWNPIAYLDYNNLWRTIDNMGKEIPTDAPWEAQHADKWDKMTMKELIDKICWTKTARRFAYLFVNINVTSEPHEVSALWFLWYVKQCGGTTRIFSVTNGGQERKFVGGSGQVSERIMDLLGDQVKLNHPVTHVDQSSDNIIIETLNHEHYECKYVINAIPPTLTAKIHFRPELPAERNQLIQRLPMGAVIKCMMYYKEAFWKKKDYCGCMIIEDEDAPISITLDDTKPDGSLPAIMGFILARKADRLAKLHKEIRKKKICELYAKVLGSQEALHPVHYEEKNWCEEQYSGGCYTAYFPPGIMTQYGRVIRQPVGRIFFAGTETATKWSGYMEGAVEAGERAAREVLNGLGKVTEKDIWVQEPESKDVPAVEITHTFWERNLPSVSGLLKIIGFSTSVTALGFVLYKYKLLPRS
Chain of B2 bradykinin receptor (P30411 whole entry): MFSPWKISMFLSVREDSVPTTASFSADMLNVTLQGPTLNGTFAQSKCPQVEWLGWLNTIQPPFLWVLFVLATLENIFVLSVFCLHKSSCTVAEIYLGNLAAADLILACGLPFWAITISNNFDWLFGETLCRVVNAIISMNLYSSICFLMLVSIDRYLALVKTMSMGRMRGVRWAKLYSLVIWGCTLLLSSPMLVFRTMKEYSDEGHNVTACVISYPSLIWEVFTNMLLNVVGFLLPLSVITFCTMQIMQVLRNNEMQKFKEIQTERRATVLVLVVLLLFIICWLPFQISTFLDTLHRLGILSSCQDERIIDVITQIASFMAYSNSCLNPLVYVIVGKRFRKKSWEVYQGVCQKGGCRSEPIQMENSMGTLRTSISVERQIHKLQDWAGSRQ

In the case of `C[C@H]1Cc2c([nH]c3cc(Cl)c(F)cc23)[C@@]2(N1)C(=O)Nc1ccc(Cl)cc12` [CIPARGAMIN], the inhibition [1] is reported as “Active”, the CC50 at 96 h [2] is reported as 14 µM and the CC50 at 96 h [3] is reported as > 25 µM. The IC50 [4] was > 30 µM, the IC50 [5] was > 10 µM and the IC50 [6] was > 10 µM. The IC50 [7] was > 30 µM, the IC50 [8] was > 30 µM and the IC50 [9] was > 10 µM. For the same compound, the IC50 [10] was > 30 µM, the IC50 [11] was > 30 µM and the IC50 [12] was > 10 µM. The IC50 [13] was > 10 µM, the IC50 [14] was > 30 µM and the IC50 [15] was > 10 µM. For the same compound, the IC50 [16] was > 10 µM, the IC50 [17] was > 10 µM and the IC50 [18] was > 10 µM. For the same compound, the IC50 [19] was > 10 µM, the IC50 [20] was > 10 µM and the IC50 [21] was > 10 µM. The IC50 [22] was > 10 µM, the IC50 [23] was > 10 µM and the IC50 [24] was > 10 µM. The IC50 [25] was > 10 µM, the clearance [26] was 9.75 mL/min/kg and the Tmax [27] was 1 h. The AUC(0-inf) [28] was 139 µM·h, the AUC(0-inf) [29] was 61.3 µM·h and the clearance [30] was 3.48 mL/min/kg. It also gave a Cmax [31] of 11.7 µM, an Activity [32] of 100% and a Survival [33] of 24.4 days. It also gave an Activity [34] of 50%, an IC50 [35] of 0.0037 µM and an ED50 [36] of 1.2 mg/kg. The ED99 [36] was 5.3 mg/kg, the solubility [37] was 39 µg/mL (≈ 99.9 µM) and the Activity [38] was “Non-toxic”. For the same compound, the Activity [39] was “Non-toxic”.

Reference: ChEMBL document CHEMBL1240532, “Spiroindolones, a potent compound class for the treatment of malaria” (Science, 2010)
